Assay [1] addresses ChsE1-ChsE2 (Mycobacterium tuberculosis, UniProt P71857+P71858).
The target in assay [2] is T1, ChsE2 (Rv3543c), tagless, expressed from the cistronic construct pigr5 (Mycobacterium tuberculosis H37Rv, UniProt P71858 1-387).
T1 sequence: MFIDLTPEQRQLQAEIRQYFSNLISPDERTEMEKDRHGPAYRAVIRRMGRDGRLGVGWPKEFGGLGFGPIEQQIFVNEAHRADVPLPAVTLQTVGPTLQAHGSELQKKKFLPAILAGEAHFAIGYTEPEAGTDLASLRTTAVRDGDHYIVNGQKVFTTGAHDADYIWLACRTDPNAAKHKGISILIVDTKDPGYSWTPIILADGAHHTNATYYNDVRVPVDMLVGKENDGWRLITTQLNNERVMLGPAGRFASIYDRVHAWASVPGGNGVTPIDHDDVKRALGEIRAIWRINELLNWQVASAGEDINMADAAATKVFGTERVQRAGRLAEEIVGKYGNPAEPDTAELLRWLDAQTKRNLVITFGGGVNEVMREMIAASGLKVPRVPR
The assay is described as follows: pull-down.

Turning to `Cc1cc2nc3c(=O)[nH]c(=O)nc-3n(C[C@H](O)[C@H](O)[C@H](O)COP(=O)(O)OP(=O)(O)OC[C@H]3O[C@@H](n4cnc5c(N)ncnc54)[C@H](O)[C@@H]3O)c2cc1C` [FAD], the “LC/UV/MS of released flavin (m/z 786), UV-visible spectrum” value in assay [1] is “ChsE1-ChsE2 is isolated as a holoprotein with FAD cofactor”.

B1: ChsE1 (Rv3544c), N-terminal His6 tagged, expressed from the cistronic construct pigr5 (enzyme)
chain: MDFDPTAEQQAVADVVTSVLERDISWEALVCGGVTALPVPERLGGDGVGLFEVGALLTEVGRHGAVTPALATLGLGVVPLLELASAEQQDRFLAGVAKGGVLTAALNEPGAALPDRPATSFVGGRLSGTKVGVGYAEQADWMLVTADNAVVVVSPTADGVRMVRTPTSNGSDEYVMTMDGVAVADCDILADVAAHRVNQLALAVMGAYADGLVAGALRLTADYVANRKQFGKPLSTFQTVAAQLAEVYIASRTIDLVAKSVIWRLAEDLDAGDDLGVLGYWVTSQAPPAMQICHHLHGGMGMDVTYPMHRYYSTIKDLTRLLGGPSHRLELLGARCSLT
On to B1, for which the binding result in assay [2] was “binds”.

The values are drawn from PMC3726044 (Biochemistry, 2013).
